Reference: PMC6973020, “Quinoline‐Conjugated Ruthenacarboranes: Toward Hybrid Drugs with a Dual Mode of Action” (Chemmedchem, 2019)

Columns and labels:
[1] = test system: A375, B16 and MCF‐7 cell lines; assay: CV cell viability assay, summary for A375, B16 and MCF‐7; format: cell-based; conditions: range over the three cell lines, 72 h
From the text: Thus, care must be taken when comparing their biological activities with those of our previous studies, even with the same cell line, because the covalent vs. non‐covalent combination of drugs might imply different mechanisms of action in the cell.44 Here, we studied the in vitro activity of ruthenacarborane 3, i. e. free acid, and its 8‐hydroxyquinolyl (4) and 4‐{(7‐chloroquinolin‐4‐yl)oxy}butanol‐1‐yl (5) esters, against a panel of cancer cell lines (B16 mouse melanoma, A375 human skin melanoma, MCF‐7 human breast adenocarcinoma, LN229 human glioblastoma, U251 human glioma). Human fibroblast cell line MRC‐5, murine microglial cell line BV‐2 as well as peritoneal exudate cells (Mph), were chosen as models for non‐malignant cells. […] Cells were exposed to 3–5 for 72 h, after which cell viability was determined via 3‐(4,5‐dimethylthiazol‐2‐yl)‐2,5‐diphenyltetrazolium bromide (MTT) and crystal violet (CV) assays, in parallel (Table 2). […]
Colorimetric assays for cellular viability. […] The absorbance was measured with an automated microplate reader at λmax 540 nm, with the reference λmax 670 nm. Untreated cells or cells treated only with BSA (control) were also measured, as reference for BSA‐free and BSA‐containing drug formulations, respectively. […] Cell viability is expressed as percentage (%) relative to control (untreated cultures).58 Experiments were run in three independent replicates. […]

[2] = test system: MCF‐7 cells; assay: Sideward Scatter (SSC, cell granularity), MCF‐7; format: cell-based, human; conditions: MCF‐7, 20 μM of 4, 72 h
Procedure: Flow cytometry. For gaining better insights into the mechanisms of action of the ruthenium complexes, MCF‐7 and LN229 cells incubated with an IC50 dose of 3 or 4, were analyzed via flow cytometry. Several staining protocols were carried out in parallel, in independent experiments: i) AnnV/PI for the detection of apoptotic cell death, ii) AO for the detection of acidic vacuoles, iii) ApoStat for checking caspase activation, iv) CFSE for detecting interference with cellular proliferation, and v) DAPI for the detection of morphological signs of apoptosis. Untreated cells or cells treated only with BSA (control) were also measured, as reference for BSA‐free and BSA‐containing drug formulations, respectively. […] Channels FL1 (green emission), FL2 (orange emission) and/or FL3 (dark red emission) were used for fluorescence detection, according to the specific staining agent. Sideward Scatter (SSC) for MCF‐7 cells treated with 4 or BSA−4 was also analyzed, with respect to the control, for detection of shifts of cell granularity. […]
Figure S16. […] Respective controls, i.e. untreated cells or cells treated only with BSA, were also measured for comparison. […]
Figure S17. […] Respective controls, i.e. untreated cells or cells treated only with BSA, were also measured for comparison.
Sideward Scatter is proportional to cell granularity and was determined via flow cytometry. […]

“closo‐ [Compound 3, closo‐ [3‐(η^6‐p‐Cymene)‐1‐(CH2COOH)‐3,1,2‐RuC2B9H10]]” gave an IC50 [1] of 18 to 23 µM.
In the case of “closo ‐[3‐(η^6‐p‐Cymene)‐1‐(quinolin‐8‐yl‐acetate)‐3,1,2‐RuC2B9H10] [Compound 4]”, the “cell granularity (SSC)” value [2] is reported as “enhanced granularity”.
